Source: US12528819B2 (priority 2016, dated 2026)
“Also recorded” adds a separate entry of the source. Like-named read-outs stand apart in the source and are kept apart here.

Legend:
aged-impaired (AI) rats [1] = test: Radial Arm Maze (RAM) behavioral task, spatial memory retention; type: in vivo, rat; details: four-hour delay
Method: The effects of methyl 3,5-diphenylpyridazine-4-carboxylate on the in vivo spatial memory retention of aged-impaired (AI) rats were assessed in a Radial Arm Maze (RAM) behavioral task using vehicle control and four different dosage levels of methyl 3,5-diphenylpyridazine-4-carboxylate (0.1 mg/kg, 0.3 mg/kg, 1 mg/kg and 3 mg/kg, ip). RAM behavioral tasks were performed on eight AI rats. All five treatment conditions (vehicle and four dosage levels) were tested on all eight rats.
The RAM apparatus used consisted of eight equidistantly-spaced arms. An elevated maze arm (7 cm width×75 cm length) projected from each facet of an octagonal center platform (30 cm diameter, 51.5 cm height). Clear side walls on the arms were 10 cm high and were angled at 65° to form a trough. A food well (4 cm diameter, 2 cm deep) was located at the distal end of each arm. Froot Loops™ (Kellogg Company) were used as rewards. Blocks constructed of Plexiglas™ (30 cm height×12 cm width) could be positioned to prevent entry to any arm. Numerous extra maze cues surrounding the apparatus were also provided.
The AI rats were initially subjected to a pre-training test (Chappell et al. Neuropharmacology 37: 481-487, 1998). The pre-training test consisted of a habituation phase (4 days), a training phase on the standard win-shift task (18 days) and another training phase (14 days) in which a brief delay was imposed between presentation of a subset of arms designated by the experimenter (e.g., 5 arms available and 3 arms blocked) and completion of the eight-arm win-shift task (i.e., with all eight arms available).
In the habituation phase, rats were familiarized to the maze for an 8-minute session on four consecutive days. In each of these sessions, food rewards were scattered on the RAM, initially on the center platform and arms and then progressively confined to the arms. After this habituation phase, a standard training protocol was used, in which a food pellet was located at the end of each arm. Rats received one trial each day for 18 days. Each daily trial terminated when all eight food pellets had been obtained or when either 16 choices were made or 15 minutes had elapsed. After completion of this training phase, a second training phase was carried out in which the memory demand was increased by imposing a brief delay during the trial. At the beginning of each trial, three arms of the eight-arm maze were blocked. Rats were allowed to obtain food on the five arms to which access was permitted during this initial “information phase” of the trial. Rats were then removed from the maze for 60 seconds, during which time the barriers on the maze were removed, thus allowing access to all eight arms. […]

GABAA α5 receptor = target: T1, GABAA α5 receptor (Rattus norvegicus, UniProt P18508+P19969); test: GABAA α5 receptor occupancy with Ro 15-4513 tracer (hippocampus vs cerebellum); type: in vivo; details: i.v.
T1 construct: from tissue; host or cells: rat brain in vivo; hippocampus versus cerebellum
T1 sequence (P19969 32-464 limits assumed): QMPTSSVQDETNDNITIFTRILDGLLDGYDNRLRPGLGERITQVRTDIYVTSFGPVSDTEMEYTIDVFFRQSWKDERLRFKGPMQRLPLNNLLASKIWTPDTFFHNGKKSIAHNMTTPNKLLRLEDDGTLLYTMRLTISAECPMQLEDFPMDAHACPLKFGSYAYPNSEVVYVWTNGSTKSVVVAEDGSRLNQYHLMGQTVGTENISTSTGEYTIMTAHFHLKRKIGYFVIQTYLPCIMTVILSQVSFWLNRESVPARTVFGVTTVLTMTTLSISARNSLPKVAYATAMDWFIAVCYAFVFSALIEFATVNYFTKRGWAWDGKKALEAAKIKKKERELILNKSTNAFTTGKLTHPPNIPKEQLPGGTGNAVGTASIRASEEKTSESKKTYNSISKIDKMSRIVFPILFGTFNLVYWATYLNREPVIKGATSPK
T1 sequence (P18508 39-466): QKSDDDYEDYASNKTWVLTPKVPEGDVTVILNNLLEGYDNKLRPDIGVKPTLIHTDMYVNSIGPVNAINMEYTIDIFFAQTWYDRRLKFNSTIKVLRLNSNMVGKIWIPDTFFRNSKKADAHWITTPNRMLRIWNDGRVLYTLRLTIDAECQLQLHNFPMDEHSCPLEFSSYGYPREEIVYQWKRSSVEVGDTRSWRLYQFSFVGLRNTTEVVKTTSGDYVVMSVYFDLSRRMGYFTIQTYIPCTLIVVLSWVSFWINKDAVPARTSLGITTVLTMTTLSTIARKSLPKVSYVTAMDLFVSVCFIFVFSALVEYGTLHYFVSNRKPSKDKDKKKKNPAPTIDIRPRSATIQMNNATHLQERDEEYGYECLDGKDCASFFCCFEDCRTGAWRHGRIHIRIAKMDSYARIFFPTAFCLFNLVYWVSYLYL
Source text: Food and water were available ad libitum.

aged-impaired (AI) rats [2] = test: Morris water maze behavioral task, ICV infusion; type: in vivo, rat; details: 100 μg ICV
Method: The effects of 6,6 dimethyl-3-(3-hydroxypropyl)thio-1-(thiazol-2-yl)-6,7-dihydro-2-benzothiophen-4(5H)-one on the in vivo spatial memory retention of aged-impaired (AI) rats were assessed in a Morris water maze behavioral task. A water maze is a pool surrounded with a novel set of patterns relative to the maze.
Cognitively impaired aged rats were implanted unilaterally with a cannula into the lateral ventricle. Stereotaxic coordinates were 1.0 mm posterior to bregma, 1.5 mm lateral to midline, and 3.5 mm ventral to the skull surface. After about a week of recovery, the rats were pre-trained in a water maze for 2 days (6 trials per day) to locate a submerged escape platform hidden underneath the surface of the pool, in which the escape platform location varied from day to day. No intracerebroventricular (ICV) infusion was given during pre-training.
After pre-training, rats received ICV infusion of either 100 μg 6,6 dimethyl-3-(3-hydroxypropyl)thio-1-(thiazol-2-yl)-6,7-dihydro-2-benzothiophen-4(5H)-one (n=6) in 5 μl DMSO or vehicle DMSO (n=5) 40 min prior to water maze training and testing. Training consisted of 8 trials per day for 2 days where the hidden escape platform remained in the same location. Rats were given 60 seconds to locate the platform with a 60 seconds inter-trial interval. The rats were given a probe test (120 seconds) 24 hr. after the end of training where the escape platform was removed. During the training, there were 4 blocks, where each block had 4 training trials.
During a test trial 24 hr. after training, the escape platform was removed. The search/swim pattern of the rats was used to measure whether the rats remember where the escape platform was located during pre-trial training in order to test for the long-term memory of the rats. In this trial, “target annulus” is a designated area 1.5 times the size of the escape platform around the area where the platform was located during pre-trial training. “Opposite annulus” is a control area of the same size as the size of the target annulus, which is located opposite to the target annulus in the pool. If the rats had good long term memory, they would tend to search in the area surrounding the location where the platform was during the pre-trial training (i.e., the “target” annulus; and not the “opposite” annulus). “Time in annulus” is the amount of time in seconds that the rat spent in the target or opposite annulus area. “Number (#) of crossings” in annulus is the number of times the rat swam across the target or opposite annulus area.

α5β3γ2 GABAA receptors = target: T2, α5β3γ2 GABAA receptors (Homo sapiens, UniProt P18507+P31644); test: Binding activity of test compounds on GABAAR: inhibition of [3H]Ro15-1788 binding, membranes of Ltk cells
T2 construct: membranes
T2 sequence (P31644 32-462): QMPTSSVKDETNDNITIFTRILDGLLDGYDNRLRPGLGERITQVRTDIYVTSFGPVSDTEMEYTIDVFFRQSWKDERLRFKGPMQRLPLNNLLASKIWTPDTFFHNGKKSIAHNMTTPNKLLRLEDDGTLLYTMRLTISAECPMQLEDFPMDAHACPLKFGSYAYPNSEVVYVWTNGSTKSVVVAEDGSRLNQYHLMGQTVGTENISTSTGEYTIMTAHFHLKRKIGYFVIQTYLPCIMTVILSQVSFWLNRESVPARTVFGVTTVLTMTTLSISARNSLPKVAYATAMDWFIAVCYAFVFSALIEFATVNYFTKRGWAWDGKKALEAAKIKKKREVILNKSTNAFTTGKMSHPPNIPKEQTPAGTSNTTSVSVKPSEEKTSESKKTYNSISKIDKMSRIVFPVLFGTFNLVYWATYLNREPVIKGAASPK
T2 sequence (P28472 26-473 partner): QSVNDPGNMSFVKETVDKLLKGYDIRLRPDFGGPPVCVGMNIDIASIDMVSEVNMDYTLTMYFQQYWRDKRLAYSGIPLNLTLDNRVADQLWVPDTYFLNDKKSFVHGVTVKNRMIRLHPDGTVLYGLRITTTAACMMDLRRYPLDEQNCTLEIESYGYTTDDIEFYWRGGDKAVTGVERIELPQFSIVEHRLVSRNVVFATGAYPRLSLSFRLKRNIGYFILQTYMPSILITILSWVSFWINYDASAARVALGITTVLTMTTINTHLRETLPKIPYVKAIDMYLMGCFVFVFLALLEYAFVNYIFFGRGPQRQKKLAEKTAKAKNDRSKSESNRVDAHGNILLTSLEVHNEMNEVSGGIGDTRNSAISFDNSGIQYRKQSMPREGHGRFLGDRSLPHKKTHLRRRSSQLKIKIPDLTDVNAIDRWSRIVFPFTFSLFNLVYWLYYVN
T2 sequence (P18507 40-467 limits assumed): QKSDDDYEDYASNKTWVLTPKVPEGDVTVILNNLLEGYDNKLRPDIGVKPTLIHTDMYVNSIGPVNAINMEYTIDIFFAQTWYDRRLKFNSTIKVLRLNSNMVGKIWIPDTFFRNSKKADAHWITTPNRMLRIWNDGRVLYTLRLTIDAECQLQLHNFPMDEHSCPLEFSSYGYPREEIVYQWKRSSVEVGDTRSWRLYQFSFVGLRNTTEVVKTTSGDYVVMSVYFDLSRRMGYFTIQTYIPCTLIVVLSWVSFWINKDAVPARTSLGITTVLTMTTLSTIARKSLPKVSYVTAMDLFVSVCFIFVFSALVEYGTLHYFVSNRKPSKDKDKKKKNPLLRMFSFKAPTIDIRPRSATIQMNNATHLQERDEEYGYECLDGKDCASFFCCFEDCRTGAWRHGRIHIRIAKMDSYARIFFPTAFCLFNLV
Method: (A) Binding activity of test compounds on GABAAR
Tissue culture and Membrane Preparation: The binding was performed on Ltk cells stably expressing GABAA receptors: α1β1γ2, α2β3γ2, α3β3γ2 and α5β3γ2 (provided by Merck Co., NJ, USA). Cells were seeded in 100 mm culture plates in DMEM/F12 medium containing 10% scrum and antibiotics in 5% CO2 and allowed to grow for 1-2 days. GABAAR expression was then induced by dexamethasone as follows: 0.5 μM for 1 day for α5 containing and 2 μM for 3 days for α1, α2 and α3 containing GABAARs. After induction, cells were collected by scraping into Dulbecco's Phosphate buffered saline (DPBS, pH 7.4, Invitrogen, Carlsbad, CA, USA) and centrifuged at 150×g for 10 min. The pellet was washed twice by re-suspension and centrifugation. The cell pellets from at least 5 different preps were combined, suspended in the binding assay buffer (50 mM KH2PO4; 1 mM EDTA; 0.2 M KCl, pH 7.4) and membranes prepared by sonication (3-5 times, 30 sec) using Branson Sonifier 150 (G. Heinmann, Germany). Protein content was determined using BCA assay (Bio-Rad Labs, Reinach, Switzerland) with Bovine Serum Albumin (Sigma Aldrich, St. Louis, MO, USA) as the standard. Aliquots were prepared and stored at −20° C. for further use in binding assays.
Ligand Binding: Saturation binding curves were obtained by incubating membranes with increasing concentrations (0.01-8 nM) of [^3H]Rol5-1788 (Flumazepil, 75-85 Ci/mmol, PerkinElmer, MA, USA), with nonspecific binding measured in the presence of 10 μM diazepam.
All binding assays were performed for 1 h at 4° C. in assay buffer. The total assay volume was 0.5 ml containing 0.2 mg/ml protein for α5 and 0.4 mg/ml for α1, α2, and α3 containing GABAAR membranes. Incubations were terminated by filtration through GF/B filters using a 24-Cell Harvestor (Brandel, Gaithersburg, MD, USA) followed by 3 washes with ice-cold assay buffer. […] Next day, radioactivity was obtained using a scintillation counter (Beckman Coulter, Brea, CA, USA). […]

MAM-treated rats = details: cited from earlier work
[3] = probe test 24 hr. after training

## CCOC(=O)c1ncn2c1Cn1c(C)nnc1-c1cc(OC)ccc1-2
aged-impaired (AI) rats [1]; 3 mg/kg, t(7)=4.13, p=0.004, or t(7)=3.08, p=0.018
  memory performance relative to vehicle control: significantly improved memory performance
aged-impaired (AI) rats [1]; 10 mg/kg, p 0.026
  memory performance relative to vehicle control: significantly improved memory performance
GABAA α5 receptor; 0.01-10 mg/kg
  effect on Ro 15-4513 binding in hippocampus: reduced; also recorded: blocked
  effect on Ro 15-4513 levels (binding) in cerebellum: without affecting; also recorded: did not affect
GABAA α5 receptor; 10 mg/kg
  GABAA α5 receptor occupancy: > 90%

## CC1(C)CC(=O)c2c(SCCCO)sc(-c3nccs3)c2C1 [6,6 dimethyl-3-(3-hydroxypropyl)thio-1-(thiazol-2-yl)-6,7-dihydro-2-benzothiophen-4(5H)-one]
aged-impaired (AI) rats [2]; beginning of training (block 1)
  time to find the escape platform: about 24 seconds
aged-impaired (AI) rats [2]; end of training (block 4)
  time to find the escape platform: about 9.6 seconds
aged-impaired (AI) rats [2]; [3]
  number of crossings of target annulus compared to opposite annulus: more often
  time in target annulus compared to opposite annulus: significantly more time in the target annulus

## C#Cc1ccc2c(c1)-n1nnc(COC)c1Cc1c(C3=N[C@@H](C(C)C)CO3)ncn1-2 [Compound 384]
α5β3γ2 GABAA receptors
  Ki: 100 to 1000 nM

## COCc1nnc2n1Cc1c(-c3ncco3)ncn1-c1cc(Cl)ccc1-2 [Compound 458]
α5β3γ2 GABAA receptors; reported as ranges
  Ki: > 1000 nM

## C#Cc1ccc2c(c1)C(c1ccccc1F)=N[C@H](C)c1c(C(=O)OCC)ncn1-2 [SH-053-2′F—R—CH3]
MAM-treated rats; MAM rats, systemic or infused into ventral HPC, to levels of saline-treated rats
  number of spontaneously active DA neurons in the ventral tegmental area (VTA): reduces
MAM-treated rats; MAM-treated rats
  increased locomotor response to amphetamine: reduced
MAM-treated rats; saline-treated and MAM-treated animals
  cortical-evoked responses of HPC neurons: diminished
